From PubChem BioAssay (NCI)
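Each compound was tested at five concentrations against cells in 96-well plates for 48 hours. At the TGI there is no net growth.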

Experiments:
Test in all cases: NCI-60 cell line screen, 48 h
SF-295 CNS = test system: SF-295 CNS
SK-MEL-5 melanoma = test system: SK-MEL-5 melanoma
OVCAR-5 ovarian = test system: OVCAR-5 ovarian
MALME-3M melanoma = test system: MALME-3M melanoma
OVCAR-3 ovarian = test system: OVCAR-3 ovarian
TK-10 renal = test system: TK-10 renal
HCC-2998 colon = test system: HCC-2998 colon
SK-OV-3 ovarian = test system: SK-OV-3 ovarian
UACC-62 melanoma = test system: UACC-62 melanoma
U251 CNS = test system: U251 CNS
SW-620 colon = test system: SW-620 colon
786-0 renal = test system: 786-0 renal
MCF7 breast = test system: MCF7 breast
SK-MEL-2 melanoma = test system: SK-MEL-2 melanoma
T-47D breast = test system: T-47D breast
HOP-62 NSCLC = test system: HOP-62 NSCLC
SF-539 CNS = test system: SF-539 CNS
UACC-257 melanoma = test system: UACC-257 melanoma
OVCAR-4 ovarian = test system: OVCAR-4 ovarian
CCRF-CEM leukemia = test system: CCRF-CEM leukemia
NCI-H226 lung = test system: NCI-H226 lung
SN12C renal = test system: SN12C renal
KM12 colon = test system: KM12 colon
IGROV1 ovarian = test system: IGROV1 ovarian
NCI/ADR-RES ovarian = test system: NCI/ADR-RES ovarian
RPMI-8226 leukemia = test system: RPMI-8226 leukemia
COLO 205 colon = test system: COLO 205 colon
CAKI-1 renal = test system: CAKI-1 renal
DU-145 prostate = test system: DU-145 prostate
A549 NSCLC = test system: A549 NSCLC
SR leukemia = test system: SR leukemia
SNB-19 CNS = test system: SNB-19 CNS
HT29 colon = test system: HT29 colon
OVCAR-8 ovarian = test system: OVCAR-8 ovarian
BT-549 breast = test system: BT-549 breast
SNB-75 CNS = test system: SNB-75 CNS
SF-268 CNS = test system: SF-268 CNS
HOP-92 NSCLC = test system: HOP-92 NSCLC
HCT-15 colon = test system: HCT-15 colon
UO-31 renal = test system: UO-31 renal
HS 578T breast = test system: HS 578T breast
K-562 leukemia = test system: K-562 leukemia
LOX IMVI melanoma = test system: LOX IMVI melanoma
MDA-MB-435 = test system: MDA-MB-435
PC-3 prostate = test system: PC-3 prostate
HCT-116 colon = test system: HCT-116 colon
NCI-H522 lung = test system: NCI-H522 lung
NCI-H23 lung = test system: NCI-H23 lung
HL-60(TB) leukemia = test system: HL-60(TB) leukemia
EKVX NSCLC = test system: EKVX NSCLC
MDA-N = test system: MDA-N
MDA-MB-231 breast = test system: MDA-MB-231 breast
MOLT-4 leukemia = test system: MOLT-4 leukemia
ACHN renal = test system: ACHN renal
M14 melanoma = test system: M14 melanoma
RXF 393 renal = test system: RXF 393 renal
A498 renal = test system: A498 renal
SK-MEL-28 melanoma = test system: SK-MEL-28 melanoma
NCI-H460 lung = test system: NCI-H460 lung

COC1CC(OC2C(C)OC(OC3C(C)OC(OC4C(C)OC(O[C@H]5CC[C@@]6(C)C(=CC[C@]7(O)[C@@H]6C[C@@H](OC(=O)/C=C(\C)C(C)C)[C@@]6(C)[C@]7(O)CC[C@@]6(O)C(C)=O)C5)CC4OC)CC3OC)CC2OC)OC(C)C1O (stereo partly drawn)
TGI (SF-295 CNS): > 12.5 µM | TGI (SK-MEL-5 melanoma): > 12.5 µM | TGI (OVCAR-5 ovarian): > 12.5 µM | TGI (MALME-3M melanoma): > 12.5 µM | TGI (OVCAR-3 ovarian): > 12.5 µM | TGI (TK-10 renal): > 12.5 µM | TGI (HCC-2998 colon): > 12.5 µM | TGI (SK-OV-3 ovarian): > 12.5 µM | TGI (UACC-62 melanoma): > 12.5 µM | TGI (U251 CNS): > 12.5 µM | TGI (SW-620 colon): > 12.5 µM | TGI (786-0 renal): > 12.5 µM | TGI (MCF7 breast): > 12.5 µM | TGI (SK-MEL-2 melanoma): > 12.5 µM | TGI (T-47D breast): > 12.5 µM | TGI (HOP-62 NSCLC): > 12.5 µM | TGI (SF-539 CNS): > 12.5 µM | TGI (UACC-257 melanoma): > 12.5 µM | TGI (OVCAR-4 ovarian): > 12.5 µM | TGI (CCRF-CEM leukemia): > 12.5 µM | TGI (NCI-H226 lung): > 12.5 µM | TGI (SN12C renal): > 12.5 µM | TGI (KM12 colon): > 12.5 µM | TGI (IGROV1 ovarian): > 12.5 µM | TGI (NCI/ADR-RES ovarian): > 12.5 µM | TGI (RPMI-8226 leukemia): > 12.5 µM | TGI (COLO 205 colon): > 12.5 µM | TGI (CAKI-1 renal): > 12.5 µM | TGI (DU-145 prostate): > 12.5 µM | TGI (A549 NSCLC): > 12.5 µM | TGI (SR leukemia): > 12.5 µM | TGI (SNB-19 CNS): > 12.5 µM | TGI (HT29 colon): > 12.5 µM | TGI (OVCAR-8 ovarian): > 12.5 µM | TGI (BT-549 breast): > 12.5 µM | TGI (SNB-75 CNS): > 12.5 µM | TGI (SF-268 CNS): > 12.5 µM | TGI (HOP-92 NSCLC): > 12.5 µM | TGI (HCT-15 colon): > 12.5 µM | TGI (UO-31 renal): > 12.5 µM | TGI (HS 578T breast): > 12.5 µM | TGI (K-562 leukemia): > 12.5 µM | TGI (LOX IMVI melanoma): > 12.5 µM | TGI (MDA-MB-435): > 12.5 µM | TGI (PC-3 prostate): > 12.5 µM | TGI (HCT-116 colon): > 12.5 µM | TGI (NCI-H522 lung): > 12.5 µM | TGI (NCI-H23 lung): > 12.5 µM | TGI (HL-60(TB) leukemia): > 12.5 µM | TGI (EKVX NSCLC): > 12.5 µM | TGI (MDA-N): > 12.5 µM | TGI (MDA-MB-231 breast): > 12.5 µM | TGI (MOLT-4 leukemia): > 12.5 µM | TGI (ACHN renal): > 12.5 µM | TGI (M14 melanoma): > 12.5 µM

CC(=O)C1=C(c2ccccc2)N(C2OC(CO)C(O)C(O)C2O)C(S)=C(C#N)C1c1ccc(Cl)cc1 (stereo not drawn)
TGI (SF-295 CNS): 99.6 µM | TGI (SK-MEL-5 melanoma): 34.9 µM | TGI (OVCAR-5 ovarian): > 100 µM | TGI (MALME-3M melanoma): 50.4 µM | TGI (OVCAR-3 ovarian): 37.2 µM | TGI (TK-10 renal): > 100 µM | TGI (HCC-2998 colon): 34.3 µM | TGI (RXF 393 renal): 85.3 µM | TGI (UACC-62 melanoma): 30.8 µM | TGI (U251 CNS): 35.2 µM | TGI (SW-620 colon): 34.5 µM | TGI (786-0 renal): 80.6 µM | TGI (MCF7 breast): 42 µM | TGI (SK-MEL-2 melanoma): 29.2 µM | TGI (T-47D breast): 40.4 µM | TGI (A498 renal): > 100 µM | TGI (HOP-62 NSCLC): 59.9 µM | TGI (SF-539 CNS): 50 µM | TGI (UACC-257 melanoma): 49.4 µM | TGI (OVCAR-4 ovarian): > 100 µM | TGI (CCRF-CEM leukemia): > 100 µM | TGI (NCI-H226 lung): 58.8 µM | TGI (SN12C renal): > 100 µM | TGI (KM12 colon): 42.1 µM | TGI (IGROV1 ovarian): > 100 µM | TGI (NCI/ADR-RES ovarian): > 100 µM | TGI (RPMI-8226 leukemia): > 100 µM | TGI (COLO 205 colon): 40.6 µM | TGI (CAKI-1 renal): 75 µM | TGI (DU-145 prostate): > 100 µM | TGI (A549 NSCLC): > 100 µM | TGI (SR leukemia): > 100 µM | TGI (SNB-19 CNS): > 100 µM | TGI (SK-MEL-28 melanoma): 41.6 µM | TGI (HT29 colon): > 100 µM | TGI (OVCAR-8 ovarian): > 100 µM | TGI (BT-549 breast): 35.6 µM | TGI (SNB-75 CNS): 78.8 µM | TGI (SF-268 CNS): 73.9 µM | TGI (HOP-92 NSCLC): 88.7 µM | TGI (HCT-15 colon): > 100 µM | TGI (UO-31 renal): > 100 µM | TGI (HS 578T breast): 78.5 µM | TGI (K-562 leukemia): > 100 µM | TGI (LOX IMVI melanoma): 34.1 µM | TGI (MDA-MB-435): 51.2 µM | TGI (NCI-H460 lung): 52.7 µM | TGI (PC-3 prostate): 42.2 µM | TGI (HCT-116 colon): 30.6 µM | TGI (NCI-H522 lung): 48.1 µM | TGI (NCI-H23 lung): > 100 µM | TGI (HL-60(TB) leukemia): > 100 µM | TGI (MDA-N): 51.5 µM | TGI (MDA-MB-231 breast): 61.8 µM | TGI (MOLT-4 leukemia): 35.3 µM | TGI (ACHN renal): > 100 µM | TGI (M14 melanoma): 46.7 µM

COc1ccccc1/C=C1\Sc2scc(-c3ccc(O)c(O)c3)[n+]2C1=O
TGI (SF-295 CNS): > 100 µM | TGI (SK-MEL-5 melanoma): 44.1 µM | TGI (OVCAR-5 ovarian): 85.7 µM | TGI (OVCAR-3 ovarian): 36.7 µM | TGI (TK-10 renal): > 100 µM | TGI (HCC-2998 colon): 31.6 µM | TGI (RXF 393 renal): 56.9 µM | TGI (SK-OV-3 ovarian): 97 µM | TGI (UACC-62 melanoma): 32.5 µM | TGI (U251 CNS): > 100 µM | TGI (SW-620 colon): 31.6 µM | TGI (786-0 renal): 29.2 µM | TGI (MCF7 breast): 91.5 µM | TGI (SK-MEL-2 melanoma): 64.1 µM | TGI (T-47D breast): 42.5 µM | TGI (HOP-62 NSCLC): > 100 µM | TGI (SF-539 CNS): 55.8 µM | TGI (UACC-257 melanoma): 70.5 µM | TGI (OVCAR-4 ovarian): 81.3 µM | TGI (CCRF-CEM leukemia): 8.64 µM | TGI (NCI-H226 lung): > 100 µM | TGI (SN12C renal): 67.5 µM | TGI (KM12 colon): > 100 µM | TGI (IGROV1 ovarian): 34.2 µM | TGI (NCI/ADR-RES ovarian): > 100 µM | TGI (RPMI-8226 leukemia): 45.2 µM | TGI (COLO 205 colon): 37.2 µM | TGI (CAKI-1 renal): 29 µM | TGI (DU-145 prostate): 57.4 µM | TGI (A549 NSCLC): > 100 µM | TGI (SR leukemia): 60.3 µM | TGI (SNB-19 CNS): > 100 µM | TGI (SK-MEL-28 melanoma): 33.1 µM | TGI (HT29 colon): 41.4 µM | TGI (OVCAR-8 ovarian): > 100 µM | TGI (BT-549 breast): 32.6 µM | TGI (SF-268 CNS): > 100 µM | TGI (HOP-92 NSCLC): 38.4 µM | TGI (HCT-15 colon): 30.6 µM | TGI (UO-31 renal): 43.2 µM | TGI (HS 578T breast): > 100 µM | TGI (K-562 leukemia): 42.1 µM | TGI (LOX IMVI melanoma): 33.5 µM | TGI (MDA-MB-435): 86.2 µM | TGI (NCI-H460 lung): 38.3 µM | TGI (PC-3 prostate): > 100 µM | TGI (HCT-116 colon): 31.3 µM | TGI (NCI-H522 lung): 24.8 µM | TGI (NCI-H23 lung): 73.5 µM | TGI (HL-60(TB) leukemia): 7.11 µM | TGI (EKVX NSCLC): > 100 µM | TGI (MDA-N): 67.1 µM | TGI (MDA-MB-231 breast): 45 µM | TGI (MOLT-4 leukemia): 38.9 µM | TGI (ACHN renal): 31 µM | TGI (M14 melanoma): 30.6 µM
